In patent US8921546B2, “Imidazolothiazole compounds for the treatment of disease” (Ambit Biosciences Corporation, priority 2006, dated 2014):
Counter-ions that a name gives are not always drawn. Like-named read-outs stand apart in the source and are kept apart here.

Experiments:
[1] = biological target: T1, FLT3 (Homo sapiens, UniProt P36888); experiment: Binding constant (Kd) measurement, phage-displayed kinase competition binding assay, FLT3
T1 construct: made in house
T1 sequence (P36888 27-993): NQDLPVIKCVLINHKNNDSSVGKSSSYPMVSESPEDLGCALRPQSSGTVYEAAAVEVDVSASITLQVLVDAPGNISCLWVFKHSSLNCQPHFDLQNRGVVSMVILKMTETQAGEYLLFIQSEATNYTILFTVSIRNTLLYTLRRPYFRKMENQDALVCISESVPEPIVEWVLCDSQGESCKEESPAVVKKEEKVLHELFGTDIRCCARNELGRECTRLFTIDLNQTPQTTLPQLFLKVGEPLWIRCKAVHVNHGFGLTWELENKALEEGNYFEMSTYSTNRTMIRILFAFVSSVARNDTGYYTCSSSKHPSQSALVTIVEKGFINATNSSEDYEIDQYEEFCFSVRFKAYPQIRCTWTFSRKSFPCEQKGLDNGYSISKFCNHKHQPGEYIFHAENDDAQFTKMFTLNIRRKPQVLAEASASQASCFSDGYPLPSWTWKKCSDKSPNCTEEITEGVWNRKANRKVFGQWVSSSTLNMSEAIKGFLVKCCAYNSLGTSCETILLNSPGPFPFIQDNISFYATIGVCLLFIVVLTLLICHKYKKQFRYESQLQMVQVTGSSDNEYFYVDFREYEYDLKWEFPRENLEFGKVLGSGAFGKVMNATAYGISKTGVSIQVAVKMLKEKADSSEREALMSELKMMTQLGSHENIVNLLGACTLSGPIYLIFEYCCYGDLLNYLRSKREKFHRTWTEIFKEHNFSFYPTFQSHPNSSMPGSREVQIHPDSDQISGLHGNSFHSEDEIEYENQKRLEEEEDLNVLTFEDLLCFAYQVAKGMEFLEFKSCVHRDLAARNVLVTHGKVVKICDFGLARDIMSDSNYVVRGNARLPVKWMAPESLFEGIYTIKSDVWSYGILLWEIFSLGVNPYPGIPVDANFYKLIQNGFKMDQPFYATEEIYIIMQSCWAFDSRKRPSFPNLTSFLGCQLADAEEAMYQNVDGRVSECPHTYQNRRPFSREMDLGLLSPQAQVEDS
Protocol: (§1) Binding Constant (Kd) Measurements for Small-Molecule-Kinase Interactions
(§2) By testing across a large class of protein kinases, specificity of the kinase inhibitors provided herein is also determined. The components of the assays include various human kinases expressed as fusions to T7 bacteriophage particles and immobilized ligands that bind to the ATP site of the kinases. […] If the test compound binds the kinase, it competes with the immobilized ligand and prevents binding to the solid support. […] The results are read out by quantitating the amount of fusion protein bound to the solid support, which is accomplished by either traditional phage plaque assays or by quantitative PCR (qPCR) using the phage genome as a template.

[2] = biological target: T2, KIT (Homo sapiens, UniProt P10721); experiment: Binding constant (Kd) measurement, phage-displayed kinase competition binding assay, KIT
T2 construct: made in house
T2 sequence (P10721 26-976): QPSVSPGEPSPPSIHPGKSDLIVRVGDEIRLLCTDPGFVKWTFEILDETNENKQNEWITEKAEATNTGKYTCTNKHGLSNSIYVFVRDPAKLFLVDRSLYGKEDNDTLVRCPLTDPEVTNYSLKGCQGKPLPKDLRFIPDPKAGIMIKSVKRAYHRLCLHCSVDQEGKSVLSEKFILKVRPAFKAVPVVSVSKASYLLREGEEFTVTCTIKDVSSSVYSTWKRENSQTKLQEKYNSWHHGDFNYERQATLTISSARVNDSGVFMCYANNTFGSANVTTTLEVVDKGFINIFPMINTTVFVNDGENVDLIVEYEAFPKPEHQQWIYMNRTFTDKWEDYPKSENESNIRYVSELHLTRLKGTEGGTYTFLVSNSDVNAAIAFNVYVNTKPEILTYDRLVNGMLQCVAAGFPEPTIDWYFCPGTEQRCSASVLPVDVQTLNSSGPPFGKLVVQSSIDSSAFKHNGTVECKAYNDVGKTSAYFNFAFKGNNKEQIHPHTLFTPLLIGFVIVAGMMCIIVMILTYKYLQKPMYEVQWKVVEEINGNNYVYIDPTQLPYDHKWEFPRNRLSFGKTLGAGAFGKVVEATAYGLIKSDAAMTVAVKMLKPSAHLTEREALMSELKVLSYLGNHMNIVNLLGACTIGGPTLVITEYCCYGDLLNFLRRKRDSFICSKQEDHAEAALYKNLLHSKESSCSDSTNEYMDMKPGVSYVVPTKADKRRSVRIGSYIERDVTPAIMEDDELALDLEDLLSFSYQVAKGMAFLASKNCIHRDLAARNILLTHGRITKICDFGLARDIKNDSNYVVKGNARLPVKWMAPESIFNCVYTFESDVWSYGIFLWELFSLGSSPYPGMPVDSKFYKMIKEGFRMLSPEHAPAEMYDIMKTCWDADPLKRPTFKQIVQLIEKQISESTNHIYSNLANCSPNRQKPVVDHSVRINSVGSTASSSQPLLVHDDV
Protocol: as §1, §2

[3] = system: MV4-11 cells; experiment: Cellular proliferation assay (MTS), MV4-11; type: cell-based; details: Homo sapiens
Source text: Cellular Proliferation Assay
Cancer cell viability and proliferation can be evaluated using a tetrazolium salt reduction cell-based assay. In viable cells, this colorimetric assay can measure mitochondrial reduction of a tetrazolium component (MTS) into an […] formazan product.
This cell line was used to determine the ability of the compounds provided herein to inhibit Flt3 in intact cells. The RS4-11 cell line, which expresses the wild-type (WT) receptor, is also used as a control to verify the test compound's ability to inhibit the FLT3 receptor containing the ITD mutation.
MV4-11 cells were plated at 10,000 cells per well in DMEM medium with 0.5% serum. RS4-11 cells were plated at 20,000 cells per well in RPMI with 0.5% serum. […] An aliquot from each well of the compound plate was transferred to the plated cells and then incubated @ 37° C. in 5% CO2 (for 3 days for the MV4-11 cells, 2 days for the RS4-11 cells).
MTS tetrazolium compound (Owen's reagent) was thawed in a H2O bath. 20 μl of MTS tetrazolium was added to each well of optical plate and the cells were incubated @ 37° C. in 5% CO2 for 2 hours.

[4] = biological target: T3, CSF1R (Homo sapiens, UniProt P07333); experiment: Binding constant (Kd) measurement, phage-displayed kinase competition binding assay, CSF1R
T3 construct: made in house
T3 sequence (P07333 20-972): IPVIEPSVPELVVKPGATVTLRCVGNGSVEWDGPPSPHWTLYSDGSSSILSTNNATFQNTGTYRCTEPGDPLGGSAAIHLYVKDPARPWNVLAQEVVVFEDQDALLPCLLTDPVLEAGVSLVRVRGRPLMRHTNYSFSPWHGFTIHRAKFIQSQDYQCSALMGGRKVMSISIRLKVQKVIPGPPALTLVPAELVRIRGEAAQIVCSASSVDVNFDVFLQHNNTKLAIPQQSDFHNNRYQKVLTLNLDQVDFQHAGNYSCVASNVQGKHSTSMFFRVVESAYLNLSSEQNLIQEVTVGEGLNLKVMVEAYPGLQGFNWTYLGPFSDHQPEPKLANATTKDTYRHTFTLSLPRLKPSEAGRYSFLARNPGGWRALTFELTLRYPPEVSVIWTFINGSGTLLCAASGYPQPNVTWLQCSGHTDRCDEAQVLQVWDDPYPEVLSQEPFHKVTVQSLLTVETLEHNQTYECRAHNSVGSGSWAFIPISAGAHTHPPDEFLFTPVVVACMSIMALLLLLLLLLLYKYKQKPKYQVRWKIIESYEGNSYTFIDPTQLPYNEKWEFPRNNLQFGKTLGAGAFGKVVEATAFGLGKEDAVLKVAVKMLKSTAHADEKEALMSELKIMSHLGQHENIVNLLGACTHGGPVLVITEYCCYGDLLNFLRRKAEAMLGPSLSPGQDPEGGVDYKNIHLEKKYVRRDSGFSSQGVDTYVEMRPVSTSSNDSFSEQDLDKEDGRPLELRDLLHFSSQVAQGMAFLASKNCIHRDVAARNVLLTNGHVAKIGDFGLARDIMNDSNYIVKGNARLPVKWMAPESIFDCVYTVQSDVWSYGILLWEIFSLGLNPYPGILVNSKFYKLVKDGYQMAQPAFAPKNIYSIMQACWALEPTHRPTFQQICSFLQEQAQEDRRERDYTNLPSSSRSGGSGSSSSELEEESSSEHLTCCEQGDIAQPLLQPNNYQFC
Protocol: as §1, §2

[5] = MV4-11 cells, 72 hour incubation, MTS, read-out: Cellular Assay MV-proliferation IC50
[6] = read-out: Binding Assay FLT3 Kd
[7] = MV4-11, 72 h, read-out: Cellular Assay MV-proliferation IC50 (nM)

Structure (SMILES): CCN(CC)CCOc1ccc2c(c1)sc1nc(-c3ccc(NC(=O)Nc4cc(C(C)(C)C)on4)cc3)cn12 [Compound B2, 1-(5-tert-Butyl-isoxazol-3-yl)-3-{4-[7-(2-diethylamino-ethoxy)-benzo[d]imidazo[2,1-b]thiazol-2-yl]-phenyl}-urea]
- Kd [1]: < 0.01 µM
- Kd [2]: < 0.01 µM
- IC50 [3, 5]: < 10 nM

Structure (SMILES): CN1CCN(CCOc2ccc3c(c2)sc2nc(-c4ccc(NC(=O)Nc5cc(C(C)(C)C)on5)cc4)cn23)CC1 [Compound B4, 1-(5-tert-Butyl-isoxazol-3-yl)-3-(4-{7-[2-(4-methyl-piperazin-1-yl)-ethoxy]-benzo[d]imidazo[2,1-b]thiazol-2-yl}-phenyl)-urea hydrochloride]
- Kd [1, 6]: < 0.01 µM
- Kd [2]: < 0.01 µM
- IC50 [3, 5]: < 10 nM

Structure (SMILES): CCN(CC)CCNC(=O)Cc1ccc2c(c1)sc1nc(-c3ccc(NC(=O)Nc4cc(C(C)(C)C)on4)cc3)cn12 [Compound C16, 2-(2-{4-[3-(5-tert-butyl-isoxazol-3-yl)-ureido]-phenyl}-benzo[d]imidazo[2,1-b]thiazol-7-yl)-N-(2-diethylamino-ethyl)-acetamide hydrochloride]
- Kd [2]: < 0.01 µM
- IC50 [3, 5]: < 10 nM
- Kd [4]: 0.01 to 0.1 µM

Structure (SMILES): CCN1CCN(CCCc2ccc3c(c2)sc2nc(-c4ccc(NC(=O)Nc5cc(C(C)(C)C)on5)cc4)cn23)CC1 [Compound D1, N-(5-tert-Butyl-isoxazol-3-yl)-N′-(4-{7-[3-(4-ethyl-piperazin-1-yl)propyl]imidazo[2,1-b][1,3]benzothiazol-2-yl}phenyl)urea hydrochloride]
- Kd [2]: < 0.01 µM
- IC50 [3, 5]: < 10 nM

Structure (SMILES): CC(C)(C)c1cc(NC(=O)Nc2ccc(-c3cn4c(n3)sc3cc(O)ccc34)cc2)no1 [Compound A4, 1-(5-tert-butyl-isoxazol-3-yl)-3-[4-(7-hydroxy-benzo[d]imidazo[2,1-b]thiazol-2-yl)-phenyl]-urea]
- Kd [1, 6]: < 0.01 µM
- IC50 [3, 5]: < 10 nM

Structure (SMILES): CC(C)(C)c1cc(NC(=O)Nc2ccc(-c3cn4c(n3)sc3cc(F)ccc34)cc2)no1 [Compound A2, 1-(5-tert-butyl-isoxazol-3-yl)-3-[4-(7-fluoro-benzo[d]imidazo[2,1-b]thiazol-2-yl)-phenyl]-urea]
- Kd [1]: 0.01 to 0.1 µM
- IC50 [3, 5]: < 10 nM

Structure (SMILES): CC(C)(C)c1cc(NC(=O)Nc2ccc(-c3cn4c(n3)sc3cc(OCCN5CCCCC5)ccc34)cc2)no1 [Compound B3, 1-(5-tert-Butyl-isoxazol-3-yl)-3-{4-[7-(2-piperidin-1-yl-ethoxy)-benzo[d]imidazo[2,1-b]thiazol-2-yl]-pheny}-urea hydrochloride]
- Kd [1, 6]: < 0.01 µM
- Kd [2]: < 0.01 µM
- IC50 [3, 5]: < 10 nM

Structure (SMILES): Cc1ccc2c(c1)sc1nc(-c3ccc(NC(=O)Nc4cc(C(C)(C)C)on4)cc3)cn12 [Compound A3, 1-(5-tert-butyl-isoxazol-3-yl)-3-[4-(7-methyl-benzo[d]imidazo[2,1-b]thiazol-2-yl)-phenyl]-urea]
- Kd [1]: < 0.01 µM
- IC50 [3, 5]: < 10 nM

Structure (SMILES): CC(C)(C)c1cc(NC(=O)Nc2ccc(-c3cn4c(n3)sc3ccccc34)cc2)no1 [Compound A1]
- Kd [1, 6]: < 0.01 µM
- IC50 [3, 5]: < 10 nM

Structure (SMILES): COc1ccc2c(c1)sc1nc(-c3ccc(NC(=O)Nc4cc(C(C)(C)C)on4)cc3)cn12 [Compound A5, 1-(5-tert-butyl-isoxazol-3-yl)-3-[4-(7-methoxy-benzo[d]imidazo[2,1-b]thiazol-2-yl)-phenyl]-urea]
- Kd [1]: < 0.01 µM
- IC50 [3, 5]: < 10 nM

Structure (SMILES): CN1CCN(c2ccc3c(c2)sc2nc(-c4ccc(NC(=O)Nc5cc(C(C)(C)C)on5)cc4)cn23)CC1 [Compound A7, 1-(5-tert-butyl-isoxazol-3-yl)-3-{4-[7-(4-methyl-piperazin-1-yl)-benzo[d]imidazo[2,1-b]thiazol-2-yl]-phenyl}-urea]
- Kd [1, 6]: < 0.01 µM
- IC50 [3, 5]: < 10 nM

Structure (SMILES): CN1CCN(CCCOc2ccc3c(c2)sc2nc(-c4ccc(NC(=O)Nc5cc(C(C)(C)C)on5)cc4)cn23)CC1 [Compound B9, 1-(5-tert-Butyl-isoxazol-3-yl)-3-(4-{7-[3-(4-methyl-piperazin-1-yl)-propoxy]-benzo[d]imidazo[2,1-b]thiazol-2-yl}-phenyl)-urea]
- Kd [1, 6]: < 0.01 µM
- Kd [2]: 0.01 to 0.1 µM
- IC50 [3, 5]: < 10 nM

Structure (SMILES): CC(C)(C)c1cc(NC(=O)Nc2ccc(-c3cn4c(n3)sc3cc(CC(=O)O)ccc34)cc2)no1 [Compound C2, 2-{2-[4-({[(5-tert-Butylisoxazol-3-yl)amino]carbonyl}amino)phenyl]imidazo[2,1-b][1,3]benzothiazol-7-yl}acetic acid]
- Kd [1]: < 0.01 µM
- Kd [2]: < 0.01 µM
- IC50 [3, 5]: < 10 nM

Structure (SMILES): CC(C)(C)c1cc(NC(=O)Nc2ccc(-c3cn4c(n3)sc3cc(C(=O)NCCN5CCOCC5)ccc34)cc2)no1 [Compound C19, 2-{4-[3-(5-tert-butyl-isoxazol-3-yl)-ureido]-phenyl}imidazo[2,1-b][1,3]benzothiazole-7-carboxylic acid (2-morpholin-4-yl-ethyl)-amide hydrochloride]
- Kd [2]: < 0.01 µM
- IC50 [3, 5]: < 10 nM
- Kd [4]: 0.01 to 0.1 µM

Structure (SMILES): CC(C)(C)c1cc(NC(=O)Nc2ccc(-c3cn4c(n3)sc3cc(OCCN5CCOCC5)ccc34)cc2)no1 [Compound B1, N-(5-tert-Butyl-isoxazol-3-yl)-N′-{4-[7-(2-morpholin-4-yl-ethoxy)imidazo[2,1-b][1,3]benzothiazol-2-yl]phenyl}urea]
- IC50 [3, 7]: < 10 nM

Structure (SMILES): CC(C)(C)c1cc(NC(=O)Nc2ccc(-c3cn4c(n3)sc3cc(N5CCOCC5)ccc34)cc2)no1 [Compound A6, 1-(5-tert-Butyl-isoxazol-3-yl)-3-[4-(7-morpholin-4-yl-benzo[d]imidazo[2,1-b]thiazol-2-yl)-phenyl]-urea]
- Kd [1]: < 0.01 µM
- IC50 [3, 5]: < 10 nM

Structure (SMILES): CC(C)(C)c1cc(NC(=O)Nc2ccc(-c3cn4c(n3)sc3cc(CC(=O)NCCN5CCCC5)ccc34)cc2)no1 [Compound C15, 2-(2-{4-[3-(5-tert-butyl-isoxazol-3-yl)-ureido]-phenyl}-benzo[d]imidazo[2,1-b]thiazol-7-yl)-N-(2-pyrrolidin-1-yl-ethyl)-acetamide hydrochloride]
- Kd [2]: < 0.01 µM
- IC50 [3, 5]: < 10 nM
- Kd [4]: 0.01 to 0.1 µM

Structure (SMILES): CC(C)(C)c1cc(NC(=O)Nc2ccc(-c3cn4c(n3)sc3cc(OC(=O)[C@@H]5CCCN5)ccc34)cc2)no1 [Compound B6, (2S)-pyrrolidine-2-carboxylic acid 2-{4-[3-(5-tert-butyl-isoxazol-3-yl)-ureido]-phenyl}-benzo[d]imidazo[2,1-b]thiazol-7-yl ester]
- Kd [1]: < 0.01 µM
- Kd [2]: 0.01 to 0.1 µM
- IC50 [3, 5]: < 10 nM

Structure (SMILES): CCOC(=O)Cc1ccc2c(c1)sc1nc(-c3ccc(NC(=O)Nc4cc(C(C)(C)C)on4)cc3)cn12 [Compound C1, Ethyl 2-{2-[4-({[(5-tert-Butylisoxazol-3-yl)amino]carbonyl}amino)phenyl]imidazo[2,1-b][1,3]benzothiazol-7-yl}acetate]
- Kd [1]: < 0.01 µM
- Kd [2]: < 0.01 µM
- IC50 [3, 5]: < 10 nM

Structure (SMILES): CCN1CCN(C(=O)Cc2ccc3c(c2)sc2nc(-c4ccc(NC(=O)Nc5cc(C(C)(C)C)on5)cc4)cn23)CC1 [Compound C17, 1-(5-tert-butyl-isoxazol-3-yl)-3-(4-{7-[2-(4-ethyl-piperazin-1-yl)-2-oxo-ethyl]benzo[d]imidazo[2,1-b]thiazol-2-yl}-phenyl)-urea hydrochloride]
- Kd [2]: < 0.01 µM
- IC50 [3, 7]: < 10 nM
- Kd [4]: 0.01 to 0.1 µM
